Legend:
Assay type in all cases: in vivo, mouse
[1] = system: BM cells; assay: FACS analysis of BM cells after 5-FU; conditions: for Sca-1+ progenitors in S-phase of the cell cycle: 5-FU treatment; for CD3ε+ lymphoid cell counts / Gr1+CD11b+ myeloid cell counts: day 7 after 5-FU; for BM HSCs (Sca-1+cKit+ cells) / HPCs (Sca-1+ cells): seven days after 5-FU
Text: Murine BM cells were filtered through a 40 μm nylon mesh (Falcon) and stained with labeled anti-mouse antibodies against CD11b, Gr-1, CD3ε, CD19, Sca-1, α5β1, (BD Biosciences), cKit (eBioscience). Anti-mouse α4β1, antibodies were generated from hybridoma (PS/2; ATCC), and detected using a secondary labeled anti-rat antibody (Caltag). Mouse annexin II was detected using a goat anti-annexin II antibody (Santa Cruz), and a secondary labeled rabbit anti-goat antibody (Caltag). Mouse uPAR was detected using a rabbit anti-mouse uPAR antibody (Sier et al. (2004), Thromb. Haemost. 91:403-11), and a secondary labeled goat anti-rabbit antibody (BD Biosciences). Control stainings included matched isotype antibodies and pre-immune antibodies. Non-specific binding was prevented by addition of mouse serum (DAKO), as alternative for Fc-receptor block. For cell cycle analysis, BM cells were stained with Sca-1-FITC and treated with PI/RNAse (BD Biosciences), as previously described (Heissig et al. (2002), Cell 109:625-37). From EDTA-anti-coagulated human blood, full blood counts were performed, MNCs were prepared using Lymphoprep (Axis-Shield), counted, and 1×10^6 PB MNCs were stained with anti-human CD34 (Tebu Bio).

[2] = system: sKitL; assay: sKitL levels in BM plasma (ELISA); conditions: WT mice
Experimental: BM extracellular fluid (BM plasma) from mice was obtained as described previously (Petit et al. (2002), Nat. Immunol. 3:687-94). BM plasma from healthy volunteers was obtained by using the first 10 ml of collection via puncture in the iliac crest under local anesthesia, and immediate anti-coagulation with EDTA. Protein extraction on BM cells was performed as described (Heymans et al. (1999), Nat. Med. 5:1135-42). Murine sKitL and SDF1α protein levels were quantified using commercial available ELISA (R&D Systems, Abingdon, UK). Murine plasminogen, and murine and human suPAR were quantified by home-made ELISA (Heymans et al. (1999), Nat. Med. 5:1135-42; Sier et al. (2004), Thromb. Haemost. 91:403-11). Lyophilized pertussis toxin was obtained from List Laboratories. MMP-2, MMP-9, and MMP-12 activities were measured using gelatin-zymography, uPA and MMP-3 activities were measured using casein-zymography, as described previously (Heymans et al. (1999), Nat. Med. 5:1135-42). Samples from gene-deficient mice were used as negative controls. Plasmin activity of BM plasma or cells (pericellular activity) was measured using substrate colorimetry (S2403), as described previously (Heymans et al. (1999), Nat. Med. 5:1135-42). Fibrinolytic activity was measured using a modified fluorescent-based in vitro clot lysis assay (Heymans et al. (1999), Nat. Med. 5:1135-42). Western blotting was performed on non-reduced samples, which were neutralized with a cocktail of protease inhibitors (Complete Inhibitor, Roche). ECM components/fragments were detected with antibodies against mouse fibronectin and laminin (Sigma), and human D1D2D3 and D2D3 (Andolfo et al. (1999), Thromb. Haemost. 88:298-306), secondary HRP-labeled antibodies (DAKO), and ECL detection system (Amersham Pharmacia).

[3] = system: fibronectin, collagen IV; assay: Immunostaining of BM sections for ECM proteins
Experimental: Mice were killed via cervical dislocation, femurs were removed, fixed in 2% paraformaldehyde in PBS for 24 hours, and decalcified in EDTA solution. After dehydration and paraffin embedding, 10 μm transverse sections were prepared on Superfrost Plus slides. Immunohistochemistry was performed using antibodies against VWF (DAKO), MMP-9 (Oncogene), tPA, uPA, MMP-2, MMP-3, MMP-12 (Santa Cruz), laminin, fibronectin (Sigma), and collagen IV (kind gift from A. Noel). Analysis was performed on a Zeiss Axioplan2, a 3CCD video camera (DXC-93OP, Sony), and KS300 software.

O=c1[nH]cc(F)c(=O)[nH]1 [5-FU, 5-fluorouracil]
Sca-1+ progenitors in S-phase of the cell cycle ([1]; Plg−/− mice): 1.2±0.6 ×10^4 per femur | CD3ε+ lymphoid cell counts ([1]; Plg−/− mice): 67±31 ×104 per femur | Gr1+CD11b+ myeloid cell counts ([1]; Plg−/− mice): 3±2 ×10^4 per femur | BM HSCs (Sca-1+cKit+ cells) ([1]; Plg−/− mice): 5±1 ×10^4 per femur | HPCs (Sca-1+ cells) ([1]; Plg−/− mice): 48±22 ×10^4 per femur | Sca-1+ progenitors in S-phase of the cell cycle ([1]; WT mice): 8.4±0.8 ×10^4 per femur | CD3ε+ lymphoid cell counts ([1]; WT mice): 438±122 ×104 per femur | Gr1+CD11b+ myeloid cell counts ([1]; WT mice): 29±13 ×10^4 per femur | BM HSCs (Sca-1+cKit+ cells) ([1]; WT mice): 42±9 ×10^4 per femur | HPCs (Sca-1+ cells) ([1]; WT mice): 206±20 ×10^4 per femur | elevation of sKitL levels in the BM plasma ([2]; seven days after treatment): 14 fold | elevation of sKitL levels in the BM plasma ([2]; ten days after treatment): 2.5 fold | collagen-IV+ area as % of total area ([3]; 5-FU-treated WT mice): 21±1% | fibronectin+ area as % of total area ([3]; 5-FU-treated WT mice): 9±1% | collagen-IV+ area as % of total area ([3]; 5-FU-treated uPA−/− mice): 26±1% | fibronectin+ area as % of total area ([3]; 5-FU-treated uPA−/− mice): 14±2%

Source: patent publication US8003096B2, “Means and methods for the recruitment and identification of stem cells” (Vlaams Interuniversitair Instituut voor Biotechnologie VZW, priority 2003, dated 2011)
